The test system of the assay is HIV-IIIb. Kind of assay: Test A: Antiviral Assays in MT4 Cells. The format is cell-based. In outline: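 MT-4 cells pre-infected with HIV-IIIb (0.004 m.o.i.) at 37 °C, then plated with 3-fold serially diluted compound (10 concentrations, quadruplicate, RPMI 1640/10% FBS). After 5 days at 37 °C, cell viability read by CellTiter-Glo chemiluminescence; mock-infected cells run in parallel.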

Where [1] appears, read: MT-4 cells infected with HIV-IIIb (0.004 m.o.i.), 5 days of incubation, CellTiter-Glo chemiluminescence readout, read-out: EC50.
Setting [2] is: Human immunodeficiency virus 1, IIIB, MT4, 120 h, MT-4 cells infected with HIV-IIIb (0.004 m.o.i.), 5 days of incubation, CellTiter-Glo chemiluminescence readout, read-out: EC50.

Like-named read-outs stand apart in the source and are kept apart here.

For the compound `Cc1cc2c(-c3cncnc3)cc(F)cc2c(-c2ccc3c4c(ccnc24)CCO3)c1[C@H](OC(C)(C)C)C(=O)O` [Compound 114, (S)-2-tert-butoxy-2-((R)-1-(2,3-dihydropyrano[4,3,2-de]quinolin-7-yl)-7-fluoro-3-methyl-5-(pyrimidin-5-yl)naphthalen-2-yl)acetic acid], the EC50 under setting [1] was 1900 nM. As for `Cc1cc2cc(Cl)ccc2c(-c2ccc3c4c(ccnc24)CCO3)c1[C@H](OC(C)(C)C)C(=O)O` [Compound 68A, (S)-2-tert-Butoxy-2-((R)-6-chloro-1-(2,3-dihydropyrano[4,3,2-de]quinolin-7-yl)-3-methylnaphthalen-2-yl)acetic acid], the EC50 under setting [1] is 14 nM.

For `Cc1ccc2c(-c3ccc4c5c(ccnc35)CCO4)c([C@H](OC(C)(C)C)C(=O)O)c(C)cc2c1` [Compound 68B, (S)-2-tert-Butoxy-2-((R)-1-(2,3-dihydropyrano[4,3,2-de]quinolin-7-yl)-3,6-dimethylnaphthalen-2-yl)acetic acid], the EC50 under setting [1] is 5 nM. As for `Cc1cc2cc(C(C)C)c(F)cc2c(-c2ccc3c4c(ccnc24)CCO3)c1[C@H](OC(C)(C)C)C(=O)O` [Compound 102, (S)-2-tert-Butoxy-2-((R)-1-(2,3-dihydropyrano[4,3,2-de]quinolin-7-yl)-7-fluoro-6-isopropyl-3-methylnaphthalen-2-yl)acetic acid], the EC50 under setting [1] was found to be 37 nM. As to `Cc1cc2cc(-c3cncnc3)ccc2c(-c2ccc(Cl)cc2)c1[C@H](OC(C)(C)C)C(=O)O` [Compound 55, (S)-2-tert-Butoxy-2-(1-(4-chlorophenyl)-3-methyl-6-(pyrimidin-5-yl)naphthalen-2-yl)acetic acid], the 50% effective concentration (EC50) under setting [2] was found to be 54 nM.

With `CC(=O)NC(C)(C)C#Cc1ccc2cc(C)c(C(OC(C)(C)C)C(=O)O)c(-c3ccc(Cl)cc3)c2c1` (stereo not shown) [Compound 96, 2-(7-(3-Acetamido-3-methylbut-1-ynyl)-1-(4-chlorophenyl)-3-methylnaphthalen-2-yl)-2-tert-butoxyacetic acid], the EC50 under setting [2] was 88 nM. As to `Cc1cc2c(Cl)cc(F)cc2c(-c2ccc3c4c(ccnc24)CCO3)c1[C@H](OC(C)(C)C)C(=O)O` [Compound 111, (2S)-2-tert-Butoxy-2-(5-chloro-1-(2,3-dihydropyrano[4,3,2-de]quinolin-7-yl)-7-fluoro-3-methylnaphthalen-2-yl)acetic acid], under setting [2], the EC50 is 1100 nM. For the compound `Cc1cc2c(C)cccc2c(-c2ccc(Cl)cc2)c1C(OC(C)(C)C)C(=O)O` (stereo not shown) [Compound 40, 2-tert-Butoxy-2-(1-(4-chlorophenyl)-3,5-dimethylnaphthalen-2-yl)acetic acid], under setting [2], the 50% effective concentration (EC50) was 210 nM. Consider `Cc1cc2c(F)c(CO)ccc2c(-c2ccc3c4c(ccnc24)CCO3)c1[C@H](OC(C)(C)C)C(=O)O` [Compound 186B, (S)-2-tert-butoxy-2-((R)-1-(2,3-dihydropyrano[4,3,2-de]quinolin-7-yl)-5-fluoro-6-(hydroxymethyl)-3-methylnaphthalen-2-yl)acetic acid], for which the EC50 under setting [1] turned out to be 24 nM. With `Cc1cc2ccccc2c(-c2ccc(F)c3cccnc23)c1[C@H](OC(C)(C)C)C(=O)O` [Compound 10, (2S)-2-tert-Butoxy-2-(1-(5-fluoroquinolin-8-yl)-3-methylnaphthalen-2-yl)acetic acid], the EC50 under setting [2] was found to be 36000 nM. On to `Cc1cc2cc(C3CC3)c(F)cc2c(-c2ccc3c4c(ccnc24)CCO3)c1[C@H](OC(C)(C)C)C(=O)O` [Compound 105, (S)-2-tert-Butoxy-2-((R)-6-cyclopropyl-1-(2,3-dihydropyrano[4,3,2de]quinolin-7-yl)-7-fluoro-3-methylnaphthalen-2-yl)acetic acid], for which the EC50 under setting [1] is 43 nM. For `Cc1cc2ccc(CCC3(O)CCCC3)cc2c(-c2ccc(Cl)cc2)c1C(OC(C)(C)C)C(=O)O` (stereo not shown) [Compound 91, 2-tert-butoxy-2-(1-(4-chlorophenyl)-7-(2-(1-hydroxycyclopentyl)ethyl)-3-methylnaphthalen-2-yl)acetic acid], the concentration for a half-maximal effect (EC50) under setting [2] came to 250 nM. `Cc1cc2ccccc2c(-c2cc(F)cc3cccnc23)c1[C@H](OC(C)(C)C)C(=O)O` [Compound 158]: the EC50 under setting [1] was found to be 35000 nM. For `Cc1cc2ccccc2c(C2=CCCC2)c1[C@H](OC(C)(C)C)C(=O)O` [Compound 12, (S)-2-tert-Butoxy-2-(1-cyclopentenyl-3-methylnaphthalen-2-yl)acetic acid], the concentration giving a half-maximal response (EC50) under setting [2] worked out at 110 nM. Same read-out and setting: the value for `Cc1cc2ccc(C#CC3(O)CCN(C)CC3)cc2c(-c2ccc(Cl)cc2)c1C(OC(C)(C)C)C(=O)O` (stereo not shown) [Compound 79, 2-tert-Butoxy-2-(1-(4-chlorophenyl)-7-((4-hydroxy-1-methylpiperidin-4-yl)ethynyl)-3-methylnaphthalen-2-yl)acetic acid] was 89 nM. With `CCc1c(C)c(C(OC(C)(C)C)C(=O)O)c(-c2ccc(Cl)cc2)c2ccccc12` (stereo not shown) [Compound 129, 2-tert-Butoxy-2-(1-(4-chlorophenyl)-4-ethyl-3-methylnaphthalen-2-yl)acetic acid], the EC50 under setting [2] worked out at 170 nM.

Consider `Cc1cc2ccccc2c(-c2cc(F)cc3cccnc23)c1[C@H](OC(C)(C)C)C(=O)O` [Compound 159], for which the EC50 under setting [1] was 1300 nM. Take `Cc1c(C(OC(C)(C)C)C(=O)O)c(-c2ccc(Cl)cc2)c2ccccc2c1Br` (stereo not shown) [Compound 126, 2-(4-Bromo-1-(4-chlorophenyl)-3-methylnaphthalen-2-yl)-2-tert-butoxyacetic acid]: the EC50 under setting [2] was 833 nM. For `CC(C)=Cc1ccc2cc(C)c(C(OC(C)(C)C)C(=O)O)c(-c3ccc(Cl)cc3)c2c1` (stereo not shown) [Compound 77, 2-tert-butoxy-2-(1-(4-chlorophenyl)-3-methyl-7-(2-methylprop-1-enyl)naphthalen-2-yl)acetic acid], the EC50 under setting [2] amounted to 8900 nM. For the compound `Cc1cc2ccccc2c(-c2ccc3c4c(ccnc24)CCO3)c1[C@H](OC(C)(C)C)C(=O)O` [Compound 6D, (S)-2-tert-Butoxy-2-((R)-1-(2,3-dihydropyrano[4,3,2-de]quinolin-7-yl)-3-methylnaphthalen-2-yl)acetic acid], the EC50 under setting [1] turned out to be 14 nM.

Consider `CC(C)(C)O[C@H](C(=O)O)c1c(CF)cc2ccccc2c1-c1ccc2c3c(ccnc13)CCO2` [Compound 31, (S)-2-tert-Butoxy-2-((R)-1-(2,3-dihydropyrano[4,3,2-de]quinolin-7-yl)-3-(fluoromethyl)naphthalen-2-yl)acetic acid], for which, under setting [2], the EC50 stood at 110 nM. Take `Cc1cc2ccccc2c(-c2ccc3c4c(cc[n+]([O-])c24)CCO3)c1[C@H](OC(C)(C)C)C(=O)O` [Compound 23, 7-((R)-2-((S)-tert-Butoxy(carboxy)methyl)-3-methylnaphthalen-1-yl)-2,3-dihydropyrano[4,3,2-de]quinoline 6-oxide]: the EC50 under setting [1] came to 24 nM. `Cc1cc2ccccc2c(-c2cccc(N3CCC3)c2)c1[C@H](OC(C)(C)C)C(=O)O` [Compound 19, (S)-2-(1-(3-(Azetidin-1-yl)phenyl)-3-methylnaphthalen-2-yl)-2-tert-butoxyacetic acid]: under “Human immunodeficiency virus 1, IIIB, MT4, 120 h”, the 50% effective concentration (EC50) came to 5400 nM.

Turning to `Cc1c([C@@H](OC(C)(C)C)C(=O)O)c(-c2ccc(Cl)cc2)c2ccccc2c1Br` [Compound 150A, (R)-2-(4-Bromo-1-(4-chlorophenyl)-3-methylnaphthalen-2-yl)-2-tert-butoxyacetic acid], under setting [2], the half-maximal effective concentration (EC50) came to 29200 nM. Same read-out and setting: the value for `Cc1cc2cc(Cl)ccc2c(-c2ccc(Cl)cc2)c1C(OC(C)(C)C)C(=O)O` (racemic) [Compound 67, 2-tert-Butoxy-2-(6-chloro-1-(4-chlorophenyl)-3-methylnaphthalen-2-yl)acetic acid] was 290 nM; that for `Cc1cc2cc(-c3cnccn3)ccc2c(-c2ccc(Cl)cc2)c1[C@H](OC(C)(C)C)C(=O)O` [Compound 60, (S)-2-tert-Butoxy-2-(1-(4-chlorophenyl)-3-methyl-6-(pyrazin-2-yl)naphthalen-2-yl)acetic acid] was 32 nM.

`Cc1cc2ccccc2c(C2=CC(C)(C)CCC2=O)c1[C@H](OC(C)(C)C)C(=O)O` [Compound 11, (S)-2-tert-Butoxy-2-(1-(3,3-dimethyl-6-oxocyclohex-1-enyl)-3-methylnaphthalen-2-yl)acetic acid]: under setting [2], the EC50 was determined as 8900 nM. Turning to `Cc1cc2cc(-c3ccc(Cl)cc3)ccc2c(-c2ccc(Cl)cc2)c1C(OC(C)(C)C)C(=O)O` (stereo not shown) [Compound 66, 2-(1,6-Bis(4-chlorophenyl)-3-methylnaphthalen-2-yl)-2-tert-butoxyacetic acid], the EC50 under setting [2] was 290 nM. As for `Cc1c(C(OC(C)(C)C)C(=O)O)c(-c2ccc(Cl)cc2)c2ccccc2c1-c1cnc(=O)[nH]c1` (stereo not shown) [Compound 146, 2-tert-Butoxy-2-(1-(4-chlorophenyl)-3-methyl-4-(2-oxo-1,2-dihydropyrimidin-5-yl)naphthalen-2-yl)acetic acid], the 50% effective concentration (EC50) under setting [2] turned out to be 10000 nM. Still for that read-out and setting: the value for `CCc1cc2cc(C)c([C@H](OC(C)(C)C)C(=O)O)c(-c3ccc4c5c(ccnc35)CCO4)c2cc1F` (atropisomer, axis not shown) [Compound 165] was 53000 nM; that for `Cc1cc2cc(Cl)c(F)cc2c(-c2ccc3c4c(ccnc24)CCO3)c1[C@H](OC(C)(C)C)C(=O)O` (atropisomer, axis not shown) [Compound 171] was 36000 nM; that for `Cc1c(C(OC(C)(C)C)C(=O)O)c(-c2ccc(Cl)cc2)c2ccccc2c1-c1ccccc1` (stereo not shown) [Compound 136, 2-tert-Butoxy-2-(1-(4-chlorophenyl)-3-methyl-4-phenylnaphthalen-2-yl)acetic acid] was 340 nM. For `Cc1cc2c(C#N)cc(F)cc2c(-c2ccc3c4c(ccnc24)CCO3)c1[C@H](OC(C)(C)C)C(=O)O` (atropisomer, axis not shown) [Compound 154], the EC50 under setting [2] was found to be 29000 nM.

With `CC(C)(C)O[C@H](C(=O)O)c1c(CO)cc2ccccc2c1-c1ccc(Cl)cc1` [Compound 30, (S)-2-tert-Butoxy-2-(1-(4-chlorophenyl)-3-(hydroxymethyl)naphthalen-2-yl)acetic acid], under setting [2], the EC50 came to 44 nM.

The EC50 is the concentration that produces a half-maximal response.

For the origin of these results see patent US9102614B2, “Naphth-2-ylacetic acid derivatives to treat AIDS” (Gilead Sciences, Inc., priority 2010, dated 2015).
